Assay results taken from patent US20260109708A1, “COMPOUNDS AND COMPOSITIONS USEFUL AS DEGRADERS OF MK2 KINASE” (Celgene Corporation, priority 2023, published 2026).

target: T1, p38a activated, mitogen-activated protein kinase-activated protein kinase 2 (MAPKAP-K2 or MK2) enzyme (Homo sapiens, UniProt P49137); assay: MK2 OMNIA biochemical assay (AssayQuant continuous-read kinase assay); settings: [MK-2]=0.05 nM, [ATP]=100 μM, [AQT0425]=10 μM
T1 construct: purchased Invitrogen PV3317
Text: Example 56.2. Mitogen-Activated Protein Kinase-Activated Protein Kinase 2 AssayQuant Technologies® Assay for Compound Potency Assessment (MK2 OMNIA Biochemical Assay)
The protocol below describes a continuous-read kinase assay optimized to measure potency of compounds against p38a activated, mitogen-activated protein kinase-activated protein kinase 2 (MAPKAP-K2 or MK2) enzyme.
A 1.25× stock solution of MK2 (PV3317, from Invitrogen) and a 5× stock solution of ATP and Sox conjugated peptide substrate, AQT0425 (CSKS-AQT0425B, from AssayQuant Technologies), were prepared in 1× kinase reaction buffer consisting of 50 mM HEPES, pH 7.5, 0.01% Brij-35, 0.55 mM EGTA, 10 mM MgCl2 and 1 mM DTT.
10 μL of the ATP and substrate solution mix was added to a Coming (3574) 384-well, white, non-binding surface microtiter plate containing 0.5 μL of serially diluted test compounds prepared in DMSO. The reactions were started with the addition of 40 μL of the enzyme solution and monitored every 71 seconds for 240 min at kex 360/λem 485 in a Synergy H4 plate reader from BioTek at room temperature.
The initial linear portions of the net progress curves were fit according to a linear equation to yield the slope and percentage of inhibition (% inhibition) at each compound concentration. The net progress curves obtained during the entirety of reactions were also fit according to an ascending single-exponential equation (Eq. 1) to yield Vobs values at each compound concentration. Plots of % Inhibition versus degrader concentrations were fit according to a dose-response equation (Eq. 2) to generate IC50 and Hill slope values while plots of Vobs versus degrader concentration were fit according to Equation 3 (Eq. 3) to generate apparent Kinact values using the GraphPad PRISM software.
where F is the fluorescence intensity from the plate reader, V0 is a constant reflecting the relationship between the instrument readout and product concentration, t is time, e is Euler's number, and Vobs is the observed inactivation rate constant.
where % Inhibition is percentage of inhibition, IC50 is half maximal inhibitory concentration, [I] is the degraders concentration, and n is the Hill slope.
where kobs is the observed inactivation rate constant, Kinact is the apparent inactivation rate constant, K1 is the apparent inhibition constant, and [I] is the degrader concentration.

T1 sequence (P49137 whole entry): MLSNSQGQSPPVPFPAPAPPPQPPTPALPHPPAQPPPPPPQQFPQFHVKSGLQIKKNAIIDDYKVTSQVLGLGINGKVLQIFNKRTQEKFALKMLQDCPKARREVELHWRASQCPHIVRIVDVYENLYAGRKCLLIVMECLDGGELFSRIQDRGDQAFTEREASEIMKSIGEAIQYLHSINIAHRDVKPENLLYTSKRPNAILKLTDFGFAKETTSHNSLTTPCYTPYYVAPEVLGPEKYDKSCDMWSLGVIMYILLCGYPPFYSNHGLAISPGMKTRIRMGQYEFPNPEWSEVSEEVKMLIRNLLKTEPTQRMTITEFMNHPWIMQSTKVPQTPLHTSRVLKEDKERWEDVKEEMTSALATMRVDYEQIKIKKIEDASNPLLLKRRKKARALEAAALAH

Row | SMILES | IC50 [nM]
1 | C[C@@H]1CNc2c(sc3ccc4nc(-c5ccc(C(=O)N[C@H]6C[C@H](CCN7CCN(c8ccc9c(C%10CCC(=O)NC%10=O)nn(C)c9c8)CC7)C6)cc5F)ccc4c23)C(=O)N1 (stereo partly drawn) [Ex 4, N-(trans-3-(2-(4-(3-(2,6-Dioxopiperidin-3-yl)-1-methyl-1H-indazol-6-yl)piperazin-1-yl)ethyl)cyclobutyl)-3-fluoro-4-((R)-10-methyl-8-oxo-9,10,11,12-tetrahydro-8H-[1,4]diazepino[5′,6′:4,5]thieno[3,2-f]quinolin-3-yl)benzamide] | < 150
2 | C[C@@H]1CNc2c(sc3ccc4nc(-n5cc(C6CCN(CCN7CCN(c8ccc9c(C%10CCC(=O)NC%10=O)nn(C)c9c8)CC7)CC6)nn5)ccc4c23)C(=O)N1 (stereo partly drawn) [Ex 46, 3-(1-Methyl-6-(4-(2-(4-(1-((R)-10-methyl-8-oxo-9,10,11,12-tetrahydro-8H-[1,4]diazepino[5′,6′:4,5]thieno[3,2-f]quinolin-3-yl)-1H-1,2,3-triazol-4-yl)piperidin-1-yl)ethyl)piperazin-1-yl)-1H-indazol-3-yl)piperidine-2,6-dione] | < 150
3 | C[C@@H]1CNc2c(sc3ccc4nc(-c5ccc(C6CCN(CCN7CCN(c8ccc(C9CCC(=O)NC9=O)cc8)CC7)CC6)nn5)ccc4c23)C(=O)N1 (stereo partly drawn) [Ex 37, 3-(4-(4-(2-(4-(6-((R)-10-Methyl-8-oxo-9,10,11,12-tetrahydro-8H-[1,4]diazepino[5′,6′:4,5]thieno[3,2-f]quinolin-3-yl)pyridazin-3-yl)piperidin-1-yl)ethyl)piperazin-1-yl)phenyl)piperidine-2,6-dione] | < 150
4 | C[C@@H]1CNc2c(sc3ccc4nc(-c5ccc(C6CCN(CCN7CCN(c8ccc(C9CCC(=O)NC9=O)cc8)CC7)CC6)nc5)ccc4c23)C(=O)N1 (stereo partly drawn) [Ex 34, 3-(4-(4-(2-(4-(5-((R)-10-Methyl-8-oxo-9,10,11,12-tetrahydro-8H-[1,4]diazepino[5′,6′:4,5]thieno[3,2-f]quinolin-3-yl)pyridin-2-yl)piperidin-1-yl)ethyl)piperazin-1-yl)phenyl)piperidine-2,6-dione] | 151 to 500
5 | C[C@@H]1CNc2c(sc3ccc4nc(-c5cnc(C6CCN(CCN7CCN(c8ccc(C9CCC(=O)NC9=O)cc8)CC7)CC6)nc5)ccc4c23)C(=O)N1 (stereo partly drawn) [Ex 36, 3-(4-(4-(2-(4-(5-((R)-10-Methyl-8-oxo-9,10,11,12-tetrahydro-8H-[1,4]diazepino[5′,6′:4,5]thieno[3,2-f]quinolin-3-yl)pyrimidin-2-yl)piperidin-1-yl)ethyl)piperazin-1-yl)phenyl)piperidine-2,6-dione] | 151 to 500
6 | C[C@@H]1COc2c(sc3ccc4nc(-c5ccc(C6CN(CCN7CCN(c8ccc(C9CCC(=O)NC9=O)cc8)CC7)C6)cc5)ccc4c23)C(=O)N1 (stereo partly drawn) [Ex 33, 3-(4-(4-(2-(3-(4-((R)-10-Methyl-8-oxo-8,9,10,11-tetrahydro-[1,4]oxazepino[7′,6′:4,5]thieno[3,2-f]quinolin-3-yl)phenyl)azetidin-1-yl)ethyl)piperazin-1-yl)phenyl)piperidine-2,6-dione] | < 150
7 | C[C@@H]1CNc2c(sc3ccc4nc(-c5ccc(C6CCN(CCN7CCN(c8ccc(C9CCC(=O)NC9=O)cc8)CC7)CC6)cn5)ccc4c23)C(=O)N1 (stereo partly drawn) [Ex 35, 3-(4-(4-(2-(4-(6-((R)-10-Methyl-8-oxo-9,10,11,12-tetrahydro-8H-[1,4]diazepino[5′,6′:4,5]thieno[3,2-f]quinolin-3-yl)pyridin-3-yl)piperidin-1-yl)ethyl)piperazin-1-yl)phenyl)piperidine-2,6-dione] | < 150
8 | C[C@@H]1CNc2c(sc3ccc4nc(-c5ccc(C(=O)N[C@H]6CC[C@H](CN7CCN(c8ccc(C9CCC(=O)NC9=O)cc8)CC7)CC6)cc5F)ccc4c23)C(=O)N1 (stereo partly drawn) [Ex 9, N-(trans-4-((4-(4-(2,6-Dioxopiperidin-3-yl)phenyl)piperazin-1-yl)methyl)cyclohexyl)-3-fluoro-4-((R)-10-methyl-8-oxo-9,10,11,12-tetrahydro-8H-[1,4]diazepino[5′,6′:4,5]thieno[3,2-f]quinolin-3-yl)benzamide] | < 150
9 | C[C@@H]1COc2c(sc3ccc4nc(-c5cccc(N6CCN(CCN7CCN(c8ccc9c(C%10CCC(=O)NC%10=O)nn(C)c9c8)CC7)CC6)c5)ccc4c23)C(=O)N1 (stereo partly drawn) [Ex 17, 3-(1-Methyl-6-(4-(2-(4-(3-((R)-10-methyl-8-oxo-8,9,10,11-tetrahydro-[1,4]oxazepino[7′,6′:4,5]thieno[3,2-f]quinolin-3-yl)phenyl)piperazin-1-yl)ethyl)piperazin-1-yl)-1H-indazol-3-yl)piperidine-2,6-dione] | < 150
10 | C[C@@H]1CNc2c(sc3ccc4nc(-c5ccc(C6CCN(CCN7CCC(c8ccc(C9CCC(=O)NC9=O)cc8)CC7)CC6)cc5)ccc4c23)C(=O)N1 (stereo partly drawn) [Ex 29, 3-(4-(1-(2-(4-(4-((R)-10-Methyl-8-oxo-9,10,11,12-tetrahydro-8H-[1,4]diazepino[5′,6′:4,5]thieno[3,2-f]quinolin-3-yl)phenyl)piperidin-1-yl)ethyl)piperidin-4-yl)phenyl)piperidine-2,6-dione] | < 150
11 | C[C@@H]1CNc2c(sc3ccc4nc(-n5cc(C6CCN(CCN7CCN(c8ccc(C9CCC(=O)NC9=O)cc8)CC7)CC6)nn5)ccc4c23)C(=O)N1 (stereo partly drawn) [Ex 45, 3-(4-(4-(2-(4-(1-((R)-10-Methyl-8-oxo-9,10,11,12-tetrahydro-8H-[1,4]diazepino[5′,6′:4,5]thieno[3,2-f]quinolin-3-yl)-1H-1,2,3-triazol-4-yl)piperidin-1-yl)ethyl)piperazin-1-yl)phenyl)piperidine-2,6-dione] | < 150
12 | C[C@@H]1CNc2c(sc3ccc4nc(-c5ccc(C(=O)NC6CCN(c7ccc8c(C9CCC(=O)NC9=O)nn(C)c8c7)CC6)cc5F)ccc4c23)C(=O)N1 (stereo partly drawn) [Ex 1, N-(1-(3-(2,6-dioxopiperidin-3-yl)-1-methyl-1H-indazol-6-yl)piperidin-4-yl)-3-fluoro-4-((R)-10-methyl-8-oxo-9,10,11,12-tetrahydro-8H-[1,4]diazepino[5′,6′:4,5]thieno[3,2-f]quinolin-3-yl)benzamide] | < 150
13 | C[C@@H]1CNc2c(sc3ccc4nc(-c5ccc(C6=CCN(CCN7CCN(c8ccc(C9CCC(=O)NC9=O)cc8)CC7)CC6)cc5)ccc4c23)C(=O)N1 (stereo partly drawn) [Ex 31, 3-(4-(4-(2-(4-(4-((R)-10-Methyl-8-oxo-9,10,11,12-tetrahydro-8H-[1,4]diazepino[5′,6′:4,5]thieno[3,2-f]quinolin-3-yl)phenyl)-3,6-dihydropyridin-1(2H)-yl)ethyl)piperazin-1-yl)phenyl)piperidine-2,6-dione] | < 150
14 | C[C@@H]1CNc2c(sc3ccc4nc(-c5ccc(N6CCC(CCN7CCC(c8ccc(C9CCC(=O)NC9=O)cc8)CC7)CC6)cc5)ccc4c23)C(=O)N1 (stereo partly drawn) [Ex 40, 3-(4-(1-(2-(1-(4-((R)-10-Methyl-8-oxo-9,10,11,12-tetrahydro-8H-[1,4]diazepino[5′,6′:4,5]thieno[3,2-f]quinolin-3-yl)phenyl)piperidin-4-yl)ethyl)piperidin-4-yl)phenyl)piperidine-2,6-dione] | 151 to 500
15 | C[C@@H]1CNc2c(sc3ccc4nc(-c5cn(C6CCN(CCN7CCC(c8ccc(C9CCC(=O)NC9=O)cc8)CC7)CC6)nn5)ccc4c23)C(=O)N1 (stereo partly drawn) [Ex 48, 3-(4-(1-(2-(4-(4-((R)-10-Methyl-8-oxo-9,10,11,12-tetrahydro-8H-[1,4]diazepino[5′,6′:4,5]thieno[3,2-f]quinolin-3-yl)-1H-1,2,3-triazol-1-yl)piperidin-1-yl)ethyl)piperidin-4-yl)phenyl)piperidine-2,6-dione] | < 150
